# Test results: patent US11040018B2, “Formulation for inhibiting formation of 5-HT2B agonists and methods of using same” (ZOGENIX INTERNATIONAL LIMITED, priority 2016, dated 2021)
# “And” between values parts separate entries of the source, which are not always exact repeats. Equal values may be shown once.
# What was measured:
# CYP2C19 = CYP2C19 (Homo sapiens, UniProt P33261); conditions: cited from earlier work
# CYP2B6 = target: T1, CYP2B6 (Homo sapiens, UniProt P20813); conditions: cited from earlier work
# T1 sequence (P20813 1-491): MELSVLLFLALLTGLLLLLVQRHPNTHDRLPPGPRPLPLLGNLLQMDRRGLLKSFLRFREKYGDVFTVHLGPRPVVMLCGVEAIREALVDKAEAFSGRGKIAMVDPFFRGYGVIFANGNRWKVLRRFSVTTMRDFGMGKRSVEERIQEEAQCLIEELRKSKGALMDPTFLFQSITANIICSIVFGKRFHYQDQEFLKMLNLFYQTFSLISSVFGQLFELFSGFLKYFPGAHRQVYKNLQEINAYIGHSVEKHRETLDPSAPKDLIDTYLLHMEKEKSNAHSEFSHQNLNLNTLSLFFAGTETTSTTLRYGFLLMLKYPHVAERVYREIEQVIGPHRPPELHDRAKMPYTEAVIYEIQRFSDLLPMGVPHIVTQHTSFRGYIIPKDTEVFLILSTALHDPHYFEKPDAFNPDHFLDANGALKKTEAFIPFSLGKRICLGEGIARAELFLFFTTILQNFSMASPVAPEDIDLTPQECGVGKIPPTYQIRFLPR
# CYP2D6 = CYP2D6 (Homo sapiens, UniProt P10635); conditions: cited from earlier work
# CYP1A2 = CYP1A2 (Homo sapiens, UniProt P05177); conditions: cited from earlier work
# CYP2C8 = target: T2, CYP2C8 (Homo sapiens, UniProt P10632); conditions: cited from earlier work
# T2 sequence (P10632 1-490): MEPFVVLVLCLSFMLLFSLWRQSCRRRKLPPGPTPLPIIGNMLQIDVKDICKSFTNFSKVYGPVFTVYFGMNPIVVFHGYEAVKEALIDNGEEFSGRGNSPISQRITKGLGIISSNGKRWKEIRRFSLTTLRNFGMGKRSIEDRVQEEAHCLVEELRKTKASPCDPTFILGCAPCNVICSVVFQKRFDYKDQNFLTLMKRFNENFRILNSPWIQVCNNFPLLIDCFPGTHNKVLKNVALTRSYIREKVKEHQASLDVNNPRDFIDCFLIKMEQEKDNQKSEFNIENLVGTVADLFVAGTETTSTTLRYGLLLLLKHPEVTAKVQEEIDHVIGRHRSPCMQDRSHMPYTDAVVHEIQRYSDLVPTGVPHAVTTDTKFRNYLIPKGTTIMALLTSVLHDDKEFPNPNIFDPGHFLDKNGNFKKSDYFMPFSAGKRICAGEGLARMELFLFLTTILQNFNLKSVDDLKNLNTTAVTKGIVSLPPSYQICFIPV
# CYP2C9 = CYP2C9 (Homo sapiens, UniProt P11712); conditions: cited from earlier work
# CYP3A4 [1] = target: CYP3A4 (Homo sapiens, UniProt P08684); conditions: cited from earlier work
# [2] = Drug-drug interaction clinical trial: fenfluramine co-administered with stiripentol, clobazam and valproate; plasma levels of fenfluramine and norfenfluramine; conditions: healthy volunteers; for Exposure impact: ratio of AUC0-72 for combination treatment to AUC0-72 for fenfluramine alone: single dose, fenfluramine 0.8 mg/kg with stiripentol 3,500 mg, clobazam 20 mg, valproate 25 mg/kg (≤1,500 mg), blood plasma, interim results
# Description: The effects of co-administration of a three-drug regimen on fenfluramine metabolism and resultant plasma levels of fenfluramine and its metabolite norfenfluramine was assessed in a clinical trial using in healthy volunteers.
# A randomized, open-label, single-dose, 3-way cross-over study was designed to examine the effects of co-administering fenfluramine with a three-drug cocktail consisting of stiripentol, clobazam, and valproate. Each patient was treated sequentially with three treatment regimens, each being administered individually, according to six different treatment sequences which were assigned randomly.
# Subjects were recruited from an existing pool of volunteers or through direct advertising, Prospects who had participated in a study within three months prior of dosing were excluded from the pool of potential participants. A full medical history for the preceding 12-month period was obtained from each subject's primary care physician and evaluated. Patients were then assessed according to the inclusion and exclusion criteria shown below. Persons chosen as study participants underwent a screening visit prior to participation to reassess and confirm compliance with those criteria.
# AUC0-72 values were calculated based on blood plasma levels of fenfluramine and norfenfluramine levels. Exposure impact is expressed as a ratio of AUC0-72 values determined for patients receiving the combination treatment to the AUC0-72 values determined for patients receiving fenfluramine alone.
# 5-HT2B receptor = 5-HT2B receptor (Homo sapiens, UniProt P41595); conditions: cited from earlier work
# CYP3A4 [3] = conditions: cited from earlier work
# Chain of 5-HT2B receptor (P41595 whole entry): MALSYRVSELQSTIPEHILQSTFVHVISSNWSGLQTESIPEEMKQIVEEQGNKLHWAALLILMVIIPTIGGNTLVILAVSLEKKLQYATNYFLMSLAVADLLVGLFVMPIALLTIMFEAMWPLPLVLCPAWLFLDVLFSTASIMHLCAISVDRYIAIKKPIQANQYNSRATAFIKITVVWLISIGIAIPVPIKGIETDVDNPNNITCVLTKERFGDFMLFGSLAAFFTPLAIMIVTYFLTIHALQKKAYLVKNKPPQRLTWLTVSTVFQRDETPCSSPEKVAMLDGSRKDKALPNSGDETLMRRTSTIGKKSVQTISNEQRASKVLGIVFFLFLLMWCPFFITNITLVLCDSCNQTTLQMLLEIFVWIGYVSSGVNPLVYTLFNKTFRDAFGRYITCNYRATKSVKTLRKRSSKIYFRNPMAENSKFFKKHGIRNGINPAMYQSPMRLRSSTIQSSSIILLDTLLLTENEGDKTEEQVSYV
# Chain of CYP2D6 (P10635 whole entry): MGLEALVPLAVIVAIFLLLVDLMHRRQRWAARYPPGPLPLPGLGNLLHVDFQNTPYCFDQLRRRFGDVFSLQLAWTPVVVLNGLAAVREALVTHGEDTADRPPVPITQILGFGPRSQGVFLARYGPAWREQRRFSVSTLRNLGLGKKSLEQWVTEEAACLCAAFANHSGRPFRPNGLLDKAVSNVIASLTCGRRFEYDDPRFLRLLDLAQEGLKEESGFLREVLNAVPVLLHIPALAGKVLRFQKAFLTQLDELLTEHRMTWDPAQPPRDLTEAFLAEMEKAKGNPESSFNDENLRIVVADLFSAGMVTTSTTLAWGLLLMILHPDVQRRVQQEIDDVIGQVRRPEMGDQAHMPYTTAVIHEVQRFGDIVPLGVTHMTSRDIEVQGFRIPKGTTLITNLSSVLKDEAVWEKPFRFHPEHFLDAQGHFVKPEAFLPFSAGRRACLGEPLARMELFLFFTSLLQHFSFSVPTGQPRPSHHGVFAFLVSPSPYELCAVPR
# Chain of CYP2C19 (P33261 whole entry): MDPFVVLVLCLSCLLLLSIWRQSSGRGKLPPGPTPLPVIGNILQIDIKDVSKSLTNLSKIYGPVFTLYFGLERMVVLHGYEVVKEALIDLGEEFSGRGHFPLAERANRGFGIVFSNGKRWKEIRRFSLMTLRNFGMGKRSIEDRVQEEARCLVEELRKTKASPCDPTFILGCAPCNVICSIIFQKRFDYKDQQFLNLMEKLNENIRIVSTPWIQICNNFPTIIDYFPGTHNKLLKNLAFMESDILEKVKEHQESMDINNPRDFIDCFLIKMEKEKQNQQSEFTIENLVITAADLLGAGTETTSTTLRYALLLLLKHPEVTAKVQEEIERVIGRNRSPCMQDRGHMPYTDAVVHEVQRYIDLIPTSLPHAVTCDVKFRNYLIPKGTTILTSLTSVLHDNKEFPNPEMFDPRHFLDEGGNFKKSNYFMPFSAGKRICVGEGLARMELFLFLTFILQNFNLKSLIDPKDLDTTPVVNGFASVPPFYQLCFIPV
# Chain of CYP3A4 (Homo sapiens, UniProt P08684) (P08684 whole entry): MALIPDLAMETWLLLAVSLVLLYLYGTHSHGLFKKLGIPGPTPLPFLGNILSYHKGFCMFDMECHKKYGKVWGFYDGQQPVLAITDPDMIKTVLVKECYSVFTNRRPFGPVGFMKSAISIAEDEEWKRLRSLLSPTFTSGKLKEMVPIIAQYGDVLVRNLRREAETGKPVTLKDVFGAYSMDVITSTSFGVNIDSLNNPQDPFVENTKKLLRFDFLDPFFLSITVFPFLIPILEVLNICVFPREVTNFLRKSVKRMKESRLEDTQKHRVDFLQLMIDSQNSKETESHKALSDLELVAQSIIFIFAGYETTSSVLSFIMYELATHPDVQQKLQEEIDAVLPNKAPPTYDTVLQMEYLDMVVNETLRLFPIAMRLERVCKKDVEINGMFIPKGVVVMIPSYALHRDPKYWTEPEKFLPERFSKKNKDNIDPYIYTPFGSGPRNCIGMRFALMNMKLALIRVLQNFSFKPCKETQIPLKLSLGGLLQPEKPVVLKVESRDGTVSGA
# Chain of CYP2C9 (P11712 whole entry): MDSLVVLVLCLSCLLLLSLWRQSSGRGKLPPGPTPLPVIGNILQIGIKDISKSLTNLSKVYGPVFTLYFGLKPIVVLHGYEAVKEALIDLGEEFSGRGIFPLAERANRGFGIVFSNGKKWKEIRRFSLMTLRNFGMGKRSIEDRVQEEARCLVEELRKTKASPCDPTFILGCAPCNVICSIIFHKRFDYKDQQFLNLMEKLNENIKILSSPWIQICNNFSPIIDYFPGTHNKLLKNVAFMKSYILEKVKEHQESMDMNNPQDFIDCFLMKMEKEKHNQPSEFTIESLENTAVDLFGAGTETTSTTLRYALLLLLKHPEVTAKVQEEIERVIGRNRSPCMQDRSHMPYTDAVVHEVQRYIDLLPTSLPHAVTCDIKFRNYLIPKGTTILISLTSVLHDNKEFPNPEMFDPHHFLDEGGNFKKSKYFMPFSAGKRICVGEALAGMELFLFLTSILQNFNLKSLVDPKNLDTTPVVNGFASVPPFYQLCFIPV
# Chain of CYP1A2 (P05177 whole entry): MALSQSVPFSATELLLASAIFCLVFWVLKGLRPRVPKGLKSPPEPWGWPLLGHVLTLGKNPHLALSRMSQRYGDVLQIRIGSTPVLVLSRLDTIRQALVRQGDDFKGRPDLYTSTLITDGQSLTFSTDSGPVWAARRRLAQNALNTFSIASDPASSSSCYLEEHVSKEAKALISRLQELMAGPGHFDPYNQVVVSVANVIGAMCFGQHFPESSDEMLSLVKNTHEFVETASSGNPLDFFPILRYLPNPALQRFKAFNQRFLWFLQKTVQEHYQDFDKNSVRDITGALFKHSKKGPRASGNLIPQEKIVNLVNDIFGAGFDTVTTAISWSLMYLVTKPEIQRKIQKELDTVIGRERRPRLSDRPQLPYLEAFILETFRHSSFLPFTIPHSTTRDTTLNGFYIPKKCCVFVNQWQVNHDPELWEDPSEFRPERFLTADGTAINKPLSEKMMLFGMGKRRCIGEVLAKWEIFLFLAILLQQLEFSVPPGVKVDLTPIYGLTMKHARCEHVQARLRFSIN
Compound,Inhibition of CYP2C19 (CYP2C19),Inhibition of CYP2D6 (CYP2D6),Inhibition of CYP1A2 (CYP1A2),Inhibition of CYP2C9 (CYP2C9),Inhibition of CYP3A4 (CYP3A4 [1]),Exposure impact: ratio of AUC0-72 for combination treatment to AUC0-72 for fenfluramine alone [2],Agonistic effect on 5-HT2B receptor (5-HT2B receptor),other results
C=C(C)[C@@H]1CCC(C)=C[C@H]1c1c(O)cc(CCCCC)cc1O [cannabidiol],inhibitory effects,inhibitory effects,potent inhibitor of CYP1A2 (time-dependent effect),inhibitory effects,potent inhibitor,–,–,Inhibition of CYP2B6 (CYP2B6): potent inhibitor; Inhibition of CYP2C8 (CYP2C8): inhibitory effects
CC(N)Cc1cccc(C(F)(F)F)c1 (stereo not drawn) [norfenfluramine],–,–,–,–,–,0.59,particularly potent 5-HT2B agonist,"Reduction of patient exposure to norfenfluramine ([2]; fenfluramine co-administered with stiripentol, clobazam and valproate): ~30%"
CC(C)(C)C(O)/C=C/c1ccc2c(c1)OCO2 (stereo not drawn) [stiripentol],less strongly,–,strongly inhibits,less strongly,strongly inhibits,–,–,–
CN1C(=O)CC(=O)N(c2ccccc2)c2cc(Cl)ccc21 [clobazam],–,strongly inhibits,–,–,–,–,–,Induction of CYP3A4 (CYP3A4 [3]): weak inducer
"CCNC(C)Cc1cccc(C(F)(F)F)c1 (racemic) [fenfluramine, 3-trifluoromethyl-N-ethylamphetamine]",–,–,–,–,–,1.66 and 1.67,does not have significant agonistic effects,–
